Results from publication PMC9352478, “Cephalosporin as Potent Urease and Tyrosinase Inhibitor: Exploration through Enzyme Inhibition, Kinetic Mechanism, and Molecular Docking Studies” (BioMed Research International, 2022).
“Also recorded” adds a separate entry of the source. Where two headings read alike, the source gives them in different places.

How the values were obtained:
[1] = target: T1, urease (Canavalia ensiformis, UniProt P07374); assay: Urease enzyme kinetics and inhibition mechanism (Lineweaver-Burk, Dixon, enzyme activity vs enzyme concentration plots); assay type: biochemical, jack bean; conditions: for Mode of urease inhibition: Lineweaver-Burk plot; for Reversible or irreversible urease inhibition: enzyme activity vs enzyme concentration 0.44-14 μg/ml; for ESI dissociation constant (Ki'), urease: secondary replot of Lineweaver-Burk intercept, substrate urea
T1 construct: purchased Sigma
T1 sequence (P07374 whole entry, looked up): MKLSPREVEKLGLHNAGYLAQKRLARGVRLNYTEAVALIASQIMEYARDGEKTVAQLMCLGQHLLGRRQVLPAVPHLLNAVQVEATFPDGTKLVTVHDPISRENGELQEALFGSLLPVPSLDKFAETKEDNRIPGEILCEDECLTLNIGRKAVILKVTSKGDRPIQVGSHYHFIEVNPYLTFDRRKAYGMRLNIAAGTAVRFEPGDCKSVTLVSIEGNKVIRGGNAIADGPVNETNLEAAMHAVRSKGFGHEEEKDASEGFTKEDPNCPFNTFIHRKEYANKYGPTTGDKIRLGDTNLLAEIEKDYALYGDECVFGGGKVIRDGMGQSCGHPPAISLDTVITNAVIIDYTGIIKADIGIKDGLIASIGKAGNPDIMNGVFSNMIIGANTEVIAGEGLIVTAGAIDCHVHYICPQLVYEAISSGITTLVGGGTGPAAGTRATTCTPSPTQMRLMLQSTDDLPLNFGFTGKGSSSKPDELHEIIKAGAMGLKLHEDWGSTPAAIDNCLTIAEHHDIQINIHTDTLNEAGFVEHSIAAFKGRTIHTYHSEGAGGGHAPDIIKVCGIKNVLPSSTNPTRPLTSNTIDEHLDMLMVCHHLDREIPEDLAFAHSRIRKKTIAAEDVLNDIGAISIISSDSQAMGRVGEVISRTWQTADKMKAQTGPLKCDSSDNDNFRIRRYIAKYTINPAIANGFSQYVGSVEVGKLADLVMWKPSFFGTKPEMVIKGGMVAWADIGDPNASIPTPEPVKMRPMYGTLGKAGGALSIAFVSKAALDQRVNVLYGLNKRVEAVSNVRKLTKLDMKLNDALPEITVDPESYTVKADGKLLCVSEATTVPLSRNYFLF
Experimental: (§1) To this end, the Lineweaver-Burk plots of 1/absorbance versus 1/urea and 1/absorbance versus 1/L-DOPA were plotted. In all kinetic studies, drug concentrations (as indicated in Lineweaver-Burk plot) and respective substrates, urea in buffer (0.063 to 2 mM) for urease and L-DOPA (0.06 to 2 mM) for tyrosinase, were added and plates were incubated for 10 min at 37°C. Later, respective enzymes were added in plates and absorbance (wavelengths same as above) was monitored for 5 min with 1 min interval. The Lineweaver-Burk plot showing type of enzyme inhibition was plotted as inverse of velocities (1/V) versus inverse of substrate concentration 1/[S] Mm^−1. Later, inhibition constant (Ki) was evaluated by both the Dixon plot and from Lineweaver-Burk plot, by secondary replot of slope versus concentrations of inhibitor.
(§2) To this end, a plot among remaining enzyme activity versus various concentrations of respective enzymes in the presence of drug concentrations (as indicated in graph) was devised as determinant of reversible or irreversible behaviour of enzyme inhibition.

[2] = target: T2, mushroom tyrosinase (Agaricus bisporus, UniProt C7FF04); assay: Tyrosinase enzyme kinetics and inhibition mechanism (Lineweaver-Burk, Dixon, diphenolase activity plots); assay type: biochemical; conditions: for Mode of tyrosinase inhibition: Lineweaver-Burk plot, oxidation of L-DOPA; for Reversible or irreversible tyrosinase inhibition: diphenolase activity, enzyme activity vs enzyme concentration 0.44-14 μg/ml; for ESI dissociation constant (Ki'), tyrosinase: secondary replot of Lineweaver-Burk intercept; for ESI dissociation constant (Ki'), tyrosinase / Ki: substrate L-DOPA; for Ki: secondary replot of Lineweaver-Burk slope, read-out: EI dissociation constant (Ki), tyrosinase
T2 construct: purchased Sigma
T2 sequence (C7FF04 1-392 limits assumed): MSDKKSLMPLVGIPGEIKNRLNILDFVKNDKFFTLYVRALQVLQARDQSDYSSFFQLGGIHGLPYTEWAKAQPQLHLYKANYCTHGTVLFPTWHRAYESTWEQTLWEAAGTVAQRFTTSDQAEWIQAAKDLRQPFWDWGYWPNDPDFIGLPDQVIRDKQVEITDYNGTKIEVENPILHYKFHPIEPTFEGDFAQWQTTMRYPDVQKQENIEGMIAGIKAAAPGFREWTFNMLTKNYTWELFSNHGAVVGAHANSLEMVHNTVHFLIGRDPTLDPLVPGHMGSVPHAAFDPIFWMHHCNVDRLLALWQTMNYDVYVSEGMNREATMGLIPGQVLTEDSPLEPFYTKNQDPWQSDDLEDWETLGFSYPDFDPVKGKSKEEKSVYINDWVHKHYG
Experimental: as §1, §2

[3] = target: T3, jack bean urease (Canavalia ensiformis, UniProt P07374); assay: biochemical
T3 construct: purchased Sigma
T3 sequence (P07374 whole entry, looked up): as the sequence (P07374 whole entry, looked up) above
Experimental: To evaluate the urease enzyme activity, assay described by Weatherburn 1967 was performed. In 96-well plate, 10 μl of enzyme (jack bean urease, 5 U/ml), 40 μl buffer (100 mM urea, 0.01 M K2HPO4, 1 mM EDTA, and 0.01 M […], pH 8.2), and 20 μl of test drug were loaded. Following 15 min incubation at 37°C, 40 μl of alkali reagent (0.5%, w/v NaOH and 0.1% active chloride NaOCl) and 40 μl of phenol reagents (1%, w/v phenol and 0.005%, w/v sodium nitroprusside) were added.

CO/N=C(\C(=O)N[C@@H]1C(=O)N2C(C(=O)O)=C(COC(C)=O)CS[C@H]12)c1csc(N)n1 [Cefotaxime sodium]
Ki [1]: 120 µM | Mode of urease inhibition [1]: competitive | Reversible or irreversible urease inhibition [1]: irreversibly | ESI dissociation constant (Ki'), urease [1]: 30000 µM | Mode of tyrosinase inhibition [2]: mixed-type, preferentially competitive | Reversible or irreversible tyrosinase inhibition [2]: irreversibly; also recorded: irreversible | ESI dissociation constant (Ki'), tyrosinase [2]: 800 µM | Ki [2]: 70 µM | IC50 [3]: 60 ± 4 µM

CO/N=C(\C(=O)N[C@@H]1C(=O)N2C(C(=O)[O-])=C(C[N+]3(C)CCCC3)CS[C@H]12)c1csc(N)n1 [Cefepime]
IC50 [3]: 190 ± 37 µM

N[C@@H](C(=O)N[C@@H]1C(=O)N2C(C(=O)O)=C(Cl)CS[C@H]12)c1ccccc1 [Cefaclor]
IC50 [3]: 170 ± 16 µM

CC1=C(C(=O)O)N2C(=O)[C@@H](NC(=O)[C@H](N)c3ccccc3)[C@H]2SC1 [Cephalexin]
IC50 [3]: 370 ± 46 µM

CO/N=C(\C(=O)N[C@@H]1C(=O)N2C(C(=O)O)=C(COC(N)=O)CS[C@H]12)c1ccco1 [Cefuroxime]
IC50 [3]: 180 ± 9 µM

COCC1=C(C(=O)OC(C)OC(=O)OC(C)C)N2C(=O)[C@@H](NC(=O)/C(=N\OC)c3csc(N)n3)[C@H]2SC1 (stereo partly shown) [Cefpodoxime proxetil]
IC50 [3]: 100 ± 14 µM

CC1=C(C(=O)O)N2C(=O)[C@@H](NC(=O)[C@H](N)C3=CCC=CC3)[C@H]2SC1 [Cephradine]
IC50 [3]: 120 ± 9 µM

C=CC1=C(C(=O)O)N2C(=O)[C@@H](NC(=O)/C(=N\OCC(=O)O)c3csc(N)n3)[C@H]2SC1 [Cefixime trihydrate]
IC50 [3]: 180 ± 14 µM

CO/N=C(\C(=O)N[C@@H]1C(=O)N2C(C(=O)O)=C(CSc3nc(=O)c(=O)[nH]n3C)CS[C@H]12)c1csc(N)n1 [Ceftriaxone sodium]
Ki [1]: 700 µM | Mode of urease inhibition [1]: competitive | Reversible or irreversible urease inhibition [1]: irreversibly | ESI dissociation constant (Ki'), urease [1]: 6000 µM | Mode of tyrosinase inhibition [2]: mixed-type, preferentially competitive | Reversible or irreversible tyrosinase inhibition [2]: irreversibly; also recorded: irreversible | ESI dissociation constant (Ki'), tyrosinase [2]: 600 µM | Ki [2]: 100 µM | IC50 [3]: 80 ± 4 µM

CC(C)(O/N=C(\C(=O)N[C@@H]1C(=O)N2C(C(=O)[O-])=C(C[n+]3ccccc3)CS[C@H]12)c1csc(N)n1)C(=O)O [Ceftazidime]
IC50 [3]: 91 ± 7 µM

NC(N)=S [Thiourea]
IC50 ([3]; jack bean urease 5 U/ml, 100 mM urea, pH 8.2, OD625 nm, read-out: Jack bean urease inhibition IC50 ± SEM): 19 ± 2 µM

CC1=C(C(=O)O)N2C(=O)[C@@H](NC(=O)[C@H](N)c3ccc(O)cc3)[C@H]2SC1 [Cefadroxil]
IC50 [3]: 220 ± 6 µM
